Series [1] has as its system Staph. aureus Russell. Description: Antibacterial Activity (Example 4), M.I.C. It counts as cell-based. The note with it: compound alone.
Series [2] concerns E. coli JT39. Put plainly: Antibacterial Activity (Example 4), M.I.C. It is filed as cell-based. Conditions: compound alone.
For series [3], the system named is P. mirabilis C889. Put plainly: Antibacterial Activity (Example 4), M.I.C. It is filed as cell-based, Proteus mirabilis. The note with it: compound alone.
Series [4] has as its system Kleb. aerogenes E70. Description: Antibacterial Activity (Example 4), M.I.C. Conditions: compound alone. It counts as cell-based, Klebsiella aerogenes.
Series [5] has as its system mice. Put plainly: Toxicity, intraperitoneal administration to mice. It counts as in vivo. The note with it: dosages up to 750 mg/kg. On the procedure:
The compound of Example 1 (Isomer II) was administered intraperitoneally to mice.

For series [6], the system named is Proteus mirabilis C889. Put plainly: Antibacterial Synergy (Example 13), MIC. It counts as cell-based. The protocol: (§1) The MIC's of ampicillin, the product of Example 10 (synergist) and ampicillin in the presence of the product of Example 10 were determined for a range of bacteria.
Series [7] deals with Staph. aureus Russell. Description: Antibacterial Synergy (Example 13), MIC. It is filed as cell-based. On the procedure: as §1
The subject of series [8] is E. coli JT39. Put plainly: Antibacterial Synergy (Example 13), MIC. It is filed as cell-based. The protocol: as §1
The test system of series [9] is Klebsiella aerogenes E70. Put plainly: Antibacterial Synergy (Example 13), MIC. It is filed as cell-based. On the procedure:
as §1

Series [10] has as its system E. coli E96 (RTEM). It is filed as in vivo, mice infected with E. coli. Conditions: amoxycillin alone; printed × 2 (dosed at 1 and 5 hours after infection); mice. On the procedure: Groups of mice were infected intraperitoneally with E. coli E96 (RTEM), and were then dosed at 1 and 5 hours after infection with amoxycillin or amoxycillin and the compound of Example 3.

The test system of series [11] is E. coli JT39. Description: Antibacterial Synergy (Example 4), MIC for ampicillin. It is filed as cell-based. The note with it: ampicillin alone, no inhibitor.
The subject of series [12] is Kleb. aerogenes E70. The series is described as above. The note with it: ampicillin alone, no inhibitor. It counts as cell-based, Klebsiella aerogenes.
For series [13], the system named is Staph. aureus Russell. The series is described as above. It counts as cell-based. The note with it: ampicillin alone, no inhibitor.
Series [14] has as its system P. mirabilis C889. Described as above. It counts as cell-based, Proteus mirabilis. The note with it: ampicillin alone, no inhibitor.
The mark [15] stands for this setting: ampicillin + synergist at 20 μg/ml.

As to `O=C(OCc1ccccc1)C1CC=C2OC3CC(=O)N3C2C1` (single isomer, unassigned) [2 (Isomer II)], the M.I.C. in series [1] was 62.5 µg/mL; in series [2], above 500 µg/mL; in series [3], above 500 µg/mL; in [4] it was above 500 µg/mL.
`COC(=O)C1CC=C2OC3CC(=O)N3C2C1` (single isomer, unassigned) [Example 1 (Isomer II)]: the results for the M.I.C. in [1], in series [3] and in series [4] were 125 µg/mL, above 500 µg/mL and above 500 µg/mL, respectively. Moreover, in series [5], the “deaths after 10 days” value was “no deaths were observed at dosages up to 750 mg/kg”.
Usually MIC stands for the smallest concentration in the dilution series that meets the test's criterion for growth inhibition. As to `O=C(O)C1CC=C2O[C@@H]3CC(=O)N3C2C1` (single isomer, unassigned) [Example 10], the “MIC Ampicillin” value in [6] (setting [15]), in series [8] (setting [15]) and in [9] (setting [15]) was “inhibition” in each case. For the same molecule, the MIC was found to be 31.2 µg/mL in series [6] (synergist alone); 125 µg/mL in series [7] (Staphylococcus aureus, synergist alone); 16 µg/mL in series [8] (Escherichia coli, synergist alone); 31.2 µg/mL in series [9] (synergist alone).
`CC1(C)S[C@@H]2[C@H](NC(=O)[C@H](N)c3ccc(O)cc3)C(=O)N2[C@H]1C(=O)O` [Amoxycillin, amoxycillin] came in with a CD50 in series [10] of 1000 mg/kg.
In the case of `O=C(O)[C@H]1CC=C2O[C@@H]3CC(=O)N3[C@H]2C1` [Example 3, Sodium (1S, 5R)-Δ^7,8-3-oxo-6-oxa-2-azatricyclo-[5.4.0.0^2,5]undecene-10-carboxylate], the M.I.C. in [1] was 125 µg/mL; in series [2], 250 µg/mL; in series [3], above 500 µg/mL; in series [4] it was above 500 µg/mL.
For the molecule `CC1(C)S[C@@H]2[C@H](NC(=O)[C@H](N)c3ccccc3)C(=O)N2[C@H]1C(=O)O` [ampicillin, reference compound], the MIC for ampicillin was 500 µg/mL in [11], 2000 µg/mL in [12], above 500 µg/mL in [13] and 2000 µg/mL in series [14]. Also, the “MIC Ampicillin” value is above 2000 µg/mL in [6] (synergist concentration 0), 500 µg/mL in series [7] (synergist concentration 0), above 2000 µg/mL in series [8] (synergist concentration 0) and 500 µg/mL in series [9] (synergist concentration 0).

These data come from US4415584A, “3-Oxo-6-oxa-2-azatricyclo 5.4.2. unadecene-4-carboxylate” (Beecham Group Limited, priority 1978, dated 1983).
